Data taken from BindingDB's records for doi:10.1021/acsmedchemlett.8b00461 (Pfizer, 2019).

Tests used:
[1] = Inhibition of BTK in goat anti-human IgM F(ab')2-stimulated human B cells assessed as reduction in cell proliferation pretreated for 30 mins followed by goat anti-human IgM F(ab')2-stimulation and measured after 3 days by [3H]-thymidine incorporation assay
[2] = Inhibition of BTK in anti-CD3/CD28-stimulated human CD4-positive T cells assessed as reduction in cell proliferation pretreated for 30 mins followed by anti-CD3/CD28-stimulation and measured after 3 days by [3H]-thymidine incorporation assay

N#CN1CCC[C@@H](n2nc(-c3ccc(Oc4cccc(C(F)(F)F)n4)cc3)c(C(N)=O)c2N)C1
IC50 [1]: 15 nM
IC50 [2]: 10100 nM

N#CN1CCC[C@@H](n2nc(-c3ccc(Oc4ccc(Cl)cn4)cc3)c(C(N)=O)c2N)C1
IC50 [1]: 1.6 nM
IC50 [2]: > 10000 nM

N#CN1CCC[C@@H](n2nc(-c3ccc(Oc4ccc(F)cc4F)cc3)c(C(N)=O)c2N)C1
IC50 [1]: 2.7 nM
IC50 [2]: > 10000 nM

N#CN1CCCC(n2nc(-c3ccc(Oc4ccc(Cl)cc4)cc3)c(C(N)=O)c2N)C1 (single isomer, unassigned)
IC50 [1]: 1.7 nM
IC50 [2]: 8150 nM

N#CN1CCC[C@@H](n2nc(-c3ccc(Oc4ncc(Cl)cc4F)cc3)c(C(N)=O)c2N)C1 [(R)-5-amino-3-(4-((5-chloro-3-fluoropyridin-2-yl)oxy)phenyl)-1-(1-cyanopiperidin-3-yl)-1H-pyrazole-4-carboxamide]
IC50 [1]: 19 nM
IC50 [2]: > 10000 nM
